This is an account of results in patent US7220876B2, “Arylcycloalkyl derivatives having branched side chains, processes for their preparation and their use as pharmaceuticals” (Sanofi-Aventis Deutschland GmbH, priority 2003, dated 2007).

This test has as its target T1, human PPARalpha (Homo sapiens, UniProt Q07869).
T1 construct: human PPARalpha receptor (amino acids S167-Y468); expressed in transfected cells; host or cells: HEK (human embryo kidney) cells, stably transfected with pcDNA3 carrying the fusion construct
T1 sequence (Q07869 167-468): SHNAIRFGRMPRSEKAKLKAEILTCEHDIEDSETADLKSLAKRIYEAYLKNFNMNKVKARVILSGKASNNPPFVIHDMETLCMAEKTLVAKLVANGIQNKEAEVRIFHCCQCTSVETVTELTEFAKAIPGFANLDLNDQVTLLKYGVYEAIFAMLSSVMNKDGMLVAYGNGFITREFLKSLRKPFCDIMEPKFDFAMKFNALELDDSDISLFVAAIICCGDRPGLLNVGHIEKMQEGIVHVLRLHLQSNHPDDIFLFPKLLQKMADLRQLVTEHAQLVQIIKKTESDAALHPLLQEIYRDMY
Put plainly: Cellular PPARalpha assay (stably transfected HEK luciferase reporter cell line). Format: cell-based. The following applies: GR-GAL4-humanPPARalpha-LBD, luciferase readout. On the procedure:
The potency of substances which bind to human PPARalpha and activate in an agonistic manner is analyzed using a stably transfected HEK cell line (HEK=human embryo kidney) which is referred to here as PPARalpha reporter cell line. It contains two genetic elements, a luciferase reporter element (pdeltaM-GAL4-Luc-Zeo) and a PPARalpha fusion protein (GR-GAL4-humanPPARalpha-LBD) which mediates expression of the luciferase reporter element depending on a PPARalpha ligand. The stably and constitutively expressed fusion protein GR-GAL4-humanPPARalpha-LBD binds in the cell nucleus of the PPARalpha reporter cell line via the GAL4 protein portion to the GAL4 DNA binding motifs 5′-upstream of the luciferase reporter element which is integrated in the genome of the cell line. There is only little expression of the luciferase reporter gene without addition of a PPARalpha ligand if fatty acid-depleted fetal calf serum (cs-FCS) is used in the assay. PPARalpha ligands bind and activate the PPARalpha fusion protein and thereby bring about expression of the luciferase reporter gene. The luciferase which is formed can be detected by means of chemiluminescence via an appropriate substrate.
The PPARalpha reporter cell line was prepared in 2 stages. Firstly, the luciferase reporter element was constructed and stably transfected into HEK cells. […] The minimal MMTV promoter section contains a CCAAT box and a TATA element in order to enable efficient transcription by RNA polymerase II. […] Then the complete Photinus pyralis gene (Genbank Accession # M15077) was cloned in 3′-downstream of the GAL4-MMTV element. After sequencing, the luceriferase reporter element consisting of five GAL4 binding sites, MMTV promoter and luciferase gene was recloned into a plasmid which confers zeocin resistance in order to obtain the plasmid pdeltaM-GAL4-Luc-Zeo. This vector was transfected into HEK cells in accordance with the statements in Ausubel, F. M. et al. (Current protocols in molecular biology, Vol. 1-3, John Wiley & Sons, Inc., 1995). […] In a second step, the PPARalpha fusion protein (GR-GAL4-humanPPARalpha-LBD) was introduced into the stable cell clone described. […] The cDNA of the ligand-binding domain of the human PPARalpha receptor (amino acids S167-Y468; Genbank Accession # S74349) was cloned in at the 3′-end of this GR-GAL4 construct. The fusion construct prepared in this way (GR-GAL4-humanPPARalpha-LBD) was recloned into the plasmid pcDNA3 (from Invitrogen) in order to enable constitutive expression therein by the cytomegalovirus promoter. This plasmid was linearized with a restriction endonuclease and stably transfected into the previously described cell clone containing the luciferase reporter element. The finished PPARalpha reporter cell line which contains a luciferase reporter element and constitutively expresses the PPARalpha fusion protein (GR-GAL4-human PPARalpha-LBD) was isolated by selection with zeocin (0.5 mg/ml) and G418 (0.5 mg/ml).
The activity of PPARalpha agonists is determined in a 3-day assay which is described below: […]
`CCCCCCCN(CCO[C@H]1CCC[C@@H](OCc2cccc(C)c2C(=O)O)C1)C(=O)NCCCC` (racemic) [XXXIX, 2-{cis-3-[2-(3-butyl-1-heptylureido)ethoxy]cyclohexyloxy-methyl}-6-methylbenzoic acid] returned an EC50 of 0.17 nM. `Cc1cccc(CO[C@@H]2CCC[C@H](OCCN(CCCc3ccccc3)C(=O)Nc3ccccc3)C2)c1C(=O)O` [Example I, 2-{(1R,3S)-3-[2-(1-[3-phenylpropyl]-3-phenylureido)ethoxy]cyclohexyloxymethyl}-6-methylbenzoic acid] displayed a concentration giving a half-maximal response (EC50) of 1.9 nM. Take `Cc1cccc(CO[C@@H]2CCC[C@H](OCCN(CC(C)(C)C)C(=O)Nc3ccccc3)C2)c1C(=O)O` [VIII, 2-((1R,3S)-3-{2-[1-(2,2-dimethylpropyl)-3-phenylureido]ethoxy}cyclohexyloxymethyl)-6-methylbenzoic acid]: the concentration giving a half-maximal response (EC50) is 96 nM. For the compound `CCCCCCCN(CCO[C@H]1CCC[C@@H](OCc2cccc(C)c2C(=O)O)C1)C(=O)Nc1ccccc1` [IX, 2-{(1R,3S)-3-[2-(1-heptyl-3-phenylureido)ethoxy]cyclohexyloxymethyl}-6-methylbenzoic acid], the EC50 amounted to 0.13 nM.

Compound `Cc1ccccc1NC(=O)N(CCO[C@H]1CCC[C@@H](OCc2cccc(C)c2C(=O)O)C1)C1CCCCC1` (racemic) [XV, 2-{cis-3-[2-(1-cyclohexyl-3-o-tolylureido)ethoxy]cyclohexyloxymethyl}-6-methylbenzoic acid] registered a concentration giving a half-maximal response (EC50) of 31 nM.

For the compound `CCCCCN(CCO[C@H]1CCC[C@@H](OCc2cccc(C)c2C(=O)O)C1)C(=O)Nc1ccccc1` [VII, 2-{(1 R,3S)-3-[2-(1-pentyl-3-phenylureido)ethoxy]cyclohexyloxymethyl}-6-methylbenzoic acid], the EC50 came out at 1.7 nM. In the case of `CCCCNC(=O)N(CCOC1CCCC(OCc2cccc(C)c2C(=O)O)C1)C(C)CC(C)C` (mixture of isomers) [XXII, 2-(cis-3-{2-[3-butyl-1-((1S)/(1R),3-dimethylbutyl)-ureido]ethoxy}cyclohexyloxymethyl)-6-methylbenzoic acid], the half-maximal effective concentration (EC50) is 3.3 nM. The compound `Cc1cccc(CO[C@@H]2CCC[C@H](OCCN(C(=O)Nc3cccc(F)c3)C3CCCCC3)C2)c1C(=O)O` (racemic) [XVI, 2-(cis-3-{2-[1-cyclohexyl-3-(3-fluorophenyl)-ureido]ethoxy}cyclohexyloxymethyl)-6-methylbenzoic acid] displayed a concentration giving a half-maximal response (EC50) of 38 nM. Compound `Cc1cccc(CO[C@@H]2CCC[C@H](OCCN(CCc3ccc(Cl)cc3)C(=O)Nc3ccccc3)C2)c1C(=O)O` [II, 2-{(1R,3S)-3-[2-(1-[2-(4-chlorophenyl)ethyl]-3-phenylureido)ethoxy]cyclohexyloxymethyl}-6-methylbenzoic acid] had a half-maximal effective concentration (EC50) of 4.9 nM. Consider `Cc1cccc(CO[C@@H]2CCC[C@H](OCCN(C(=O)Nc3cccc(F)c3)C3CC3)C2)c1C(=O)O` (racemic) [XLV, 2-(cis-3-{2-[1-cyclopropyl-3-(3-fluorophenyl)-ureido]ethoxy}cyclohexyloxymethyl)-6-methylbenzoic acid], for which the EC50 came to 90 nM.

In the case of `CCCCNC(=O)N(CCO[C@H]1CCC[C@@H](OCc2cccc(C)c2C(=O)O)C1)C1CCCCC1` (racemic) [XVII, 2-{cis-3-[2-(3-butyl-1-cyclohexylureido)ethoxy]cyclohexyloxymethyl}-6-methylbenzoic acid], a half-maximal effect (EC50) was put at 84 nM. As to `CCCCNC(=O)N(CCO[C@H]1CCC[C@@H](OCc2cccc(C)c2C(=O)O)C1)Cc1ccc(C)cc1` [XII, 2-((1R,3S)-3-{2-[3-butyl-1-(4-methylbenzyl)ureido]ethoxy}-cyclohexyloxymethyl)-6-methylbenzoic acid], the concentration giving a half-maximal response (EC50) worked out at 0.07 nM.
